Results on 19 molecules are retold here after paper PMC6832503, “Synthesis of Novel Nicotinic Ligands with Multimodal Action: Targeting Acetylcholine α4β2, Dopamine and Serotonin Transporters” (Molecules, 2019).

Each structure is given as a SMILES string. Structures can show the parent of a compound that is named as a salt.

The target of data set [1] is T1, α4β2 nAChR (Rattus norvegicus, UniProt P09483+P12390).
T1 construct: the rat complete brain P1 fraction (occupying 2 mg of wet tissue for each assay); from tissue; host or cells: whole rat brain, synaptosome pellet (fraction P1)
Nature of the data set: [3H]-cytisine competitive binding on whole rat brain synaptosomes. As for the experimental part:
(§1) To evaluate the affinity (Ki) of our compounds, competitive binding assays in α4β2 nAChR using [^3H]-cytisine as radioligand ([^3H]-Cyt) was measured. Binding experiments were carried out on whole rat brain synaptosomes. To evaluate the affinity on the monoamine transporters SERT and DAT, binding affinity (Ki) was determined using [^3H]-WIN 35,428 ([^3H]-WIN) for h-DAT and [^3H]-paroxetine ([^3H]-parox) for h-SERT as specific radioligands for the corresponding monoamine transporters respectively. Competitive binding studies were carried out on homogenized membranes prepared from the human clonal cell line HEK293 for h-SERT (Perkin Elmer) and CHO-K1 for h-DAT (Perkin Elmer). […].
Preparation of the synaptosome fraction: the rats were sacrificed by decapitation, and their brain removed without dissecting. Brain tissue was homogenized in 40 volumes using a buffer of 0.32 M sucrose at pH 7.4, containing 1 mM EDTA, 0.1 mM PMSF, and 0.01% of cold and freshly prepared NaN3, through a glass homogenizer and teflon stem. The homogenate was distributed in Eppendorf tubes and centrifuged at 20,000 g for 30 min at 4 °C to produce a synaptosome pellet (fraction P1) which is used for the binding assay. This fraction P1 was subsequently stored at −80 °C.
Binding assay of [^3H]-cytisine in α4β2 nAChR cells: the rat complete brain P1 fraction (occupying 2 mg of wet tissue for each assay) was incubated in 2500 μL of 20 mM HEPES buffer solution at pH 7.4 containing 118 mm NaCl, 4.8 mm KCl, 2.5 mm CaCl2, 200 mm Tris, 0.1 mm PMSF and 0.01% NaN3 with or without the different drugs under study at different concentrations, in the presence of 1 nM of [^3H]-cytisine (specific activity 35.8 Ci/mmol, Code NET1054025UC, Perkin-Elmer, Santiago, Chile) in a final volume of 250 μL. Non-specific binding was determined using 2.5 mM of cytisine. Incubation was performed for 30 min at room temperature and then for 60 min at 4 °C. Incubation was stopped by rapid filtration in Whatman GF/C filter preabsorbed in 0.5% polyethylenimine, which were washed with cold and fresh working buffer 7 times, then dried, and adding scintillation liquid, left for the whole night in Eppendorf tubes in order to measure later the radioactivity by liquid scintillation spectrometry (MicroBeta 2450 microplate counter, PerkinElmer, Santiago, Chile). The data were plotted by non-linear regression variable inhibitor-response dose (Prism 5.01, GraphPad, San Diego, CA, USA) to obtain the IC50 and Ki values of the tested compounds using the Cheng-Prusoff equation.

Data set [2] concerns the target T2, h-DAT (Homo sapiens, UniProt Q01959).
T2 construct: purchased Perkin-Elmer RBHDATM400UA; host or cells: CHO-K1 membranes
Put plainly: [3H]-WIN 35,428 competitive binding on h-DAT membranes (CHO-K1). Here is the method:
as §1
The cellular background CHO-K1 with 400 μL of h-DAT (Code RBHDATM400UA, Perkin-Elmer, Santiago, Chile) was diluted in 12 Eppendorf tubes, with a storage buffer solution of Tris-HCl 50 mM (pH 7.4), EDTA 0.5 mM, MgCl2 10 mM and 10% sucrose, obtaining a final volume of 260–340 μL stored at −80 °C [46]. Each Eppendorf tube was incubated in 50 mM Tris-HCl buffer solution (pH 7.4), 100 mM NaCl, the drugs under study were using increasing concentrations, with 1 nM of [^3H]-WIN 35,428 (specific activity 82.6 Ci/mmol, Code NET1033025UC, Perkin-Elmer, Santiago, Chile) with a final volume of 250 μL. Non-specific binding was determined using 10 mM methylphenidate.
After 120 min at 4 °C, the incubation was stopped by rapid filtration on a Whatman GF/C filter preabsorbed in 0.5% polyethylenimine (PEI), washed with cold working buffer solution, 3 x 3mL, filtered, and scintillation liquid was added. The radioactivity was measured by liquid scintillation spectrometry (MicroBeta 2450 microplate counter, PerkinElmer, Santiago, Chile). The data were plotted by non-linear regression variable inhibitor-response dose (Prism 5.01, GraphPad, San Diego, CA, USA) to estimate the IC50 and Ki values for the tested compounds using the Cheng-Prusoff equation.

Data set [3] concerns the target T3, h-SERT (Homo sapiens, UniProt P31645).
T3 construct: purchased Perkin-Elmer RBHSTM400UA; host or cells: HEK293 membranes
Put plainly: [3H]-paroxetine radioligand binding on h-SERT membranes (HEK293). The following applies: for % radioligand binding at 25 µM / % of Binding [3H]-Paroxetine h-SERT: 25 μM compound, 2 nM [3H]-paroxetine, HEK293 h-SERT membranes; for affinity for h-SERT (displacement of [3H]-paroxetine from the central binding site): result in words. Here is the method: as §1
The cellular background HEK293 containing 400 μL of h-SERT (Code RBHSTM400UA, Perkin-Elmer, Santiago, Chile) was diluted in 12 Eppendorf tubes, containing a storage buffer solution of Tris-HCl 50 mM (pH 7.4), EDTA 0.5 mM, MgCl2 10 mM and 10% sucrose, obtaining a final volume between 260 and 340 μL, which was finally stored at −80 °C [46].
Each Eppendorf tube was incubated with 50 mM Tris HCl buffer (pH 7.4), 120 mM NaCl, 5 mM KCl and the drugs under study using increasing concentrations, in presence of 2 nM of [^3H]-paroxetine (specific activity 23.1 Ci/mmol, Code NET86925UC, Perkin-Elmer, Santiago, Chile) with a final volume of 250 μL [46]. Non-specific binding was determined using […] fluoxetine. After 30 min at 27 °C, the incubation was stopped by rapid filtration on a Whatman GF/C filter preabsorbed in 0.5% polyethylenimine (PEI), washed with cold working buffer solution, 3 × 3mL, filtered, and scintillation liquid was added. The radioactivity was measured by liquid scintillation spectrometry (MicroBeta 2450 microplate counter, PerkinElmer, Santiago, Chile). The data were represented in a bar graph using 25 μM concentration for both, the compound under study and fluoxetine as the non-specific ligand. Each bar represents the mean ± S.E.M obtained in the experiments carried out in triplicates.
Background: Loss of bound radioactivity is the signal in a displacement assay; it reports binding, not function.

On to `CN1CCC[C@H]1COC(=O)Cc1ccc(Cl)cc1Cl` (as salt: hydrochloride), for which the melting point fell in the range of 179.1 to 180.5 °C.
Still for that read-out and setting: in the case of `CN1CCC[C@H]1COC(=O)Cc1ccc(Cl)c(Cl)c1` (as salt: hydrochloride) it was 183.5 to 184.8 °C; in that of `CN1CCC[C@H]1COC(=O)c1cccc(Cl)c1` (as salt: hydrochloride) [Compound 3, (S)-(1-Methyl-2-pyrrolidinyl)methyl 3-chlorobenzoate], 120.5 to 121.9 °C.
The molecule `CN1CCCC1CCOC(=O)c1ccccc1` (racemic) [Compound 7, (±)-2-(1-Methyl-2-pyrrolidinyl)ethyl benzoate] showed a Ki in data set [1] of 1.79 ± 0.378 µM. Moreover, the “Ki (µM) h-DAT” value in data set [2] is “no affinity and N.E”. In data set [3] (values above 100 = increased radioligand binding), this molecule came in with a % radioligand binding at 25 µM of 100 ± 0.5%. The “affinity for h-SERT (displacement of [3H]-paroxetine from the central binding site)” value (from here on “affinity for h-SERT”) in data set [3] is given as “no affinity”.
Regarding `CN1CCCC1CCOC(=O)c1cccc(F)c1` (racemic) [Compound 8, (±)-2-(1-Methyl-2-pyrrolidinyl)ethyl 3-fluorobenzoate], the “Ki (µM) α4β2 nAChR” value in data set [1] is “N.E”. Moreover, the “Ki (µM) h-DAT” value in data set [2] was “N.E”. In data set [3] ([…]), the “% of Binding [3H]-Paroxetine h-SERT” value is “increase in the binding” and the % radioligand binding at 25 µM is 140 ± 2%.
As to `CN1CCCC1CCOC(=O)c1cccc(Cl)c1` (racemic) [Compound 9, (±)-2-(1-Methyl-2-pyrrolidinyl)ethyl 3-chlorobenzoate], in data set [1], the Ki is 3.46 ± 0.36 µM. In addition, the “Ki (µM) h-DAT” value in data set [2] is “N.E”. In addition, the % radioligand binding at 25 µM in data set [3] ([…]) worked out at 108 ± 1.2%.
Take `Cc1ccccc1C(=O)OCCC1CCCN1C` (racemic) [Compound 11, (±)-2-(1-Methyl-2-pyrrolidinyl)ethyl 2-methylbenzoate]: the “Ki (µM) α4β2 nAChR” value in data set [1] was “did not display affinity”. Moreover, the “Ki (µM) h-DAT” value in data set [2] is listed as “did not display affinity”. The “affinity for h-SERT” value in data set [3] is “did not display affinity”.
For `Cc1ccc(C(=O)OCCC2CCCN2C)cc1` (racemic) [Compound 12, (±)-2-(1-Methyl-2-pyrrolidinyl)ethyl 4-methylbenzoate], the “Ki (µM) α4β2 nAChR” value in data set [1] was “did not display affinity”. The “Ki (µM) h-DAT” value in data set [2] is reported as “did not display affinity”. The “affinity for h-SERT” value in data set [3] was “did not display affinity”.
As for `CN1CCCC1CCOC(=O)Cc1ccccc1` (racemic) [Compound 16, (±)-2-(-1-Methyl-2-pyrrolidinyl)ethyl 2-phenylacetate], the “Ki (µM) α4β2 nAChR” value in data set [1] is recorded as “N.E”. The molecule also showed a Ki in data set [2] of 22.7 ± 7.1 µM. In addition, in data set [3] ([…]), the % radioligand binding at 25 µM came to 92 ± 0.3%.
For `CN1CCCC1CCOC(=O)Cc1ccc(Cl)c(Cl)c1` (racemic) [Compound 17, (±)-2-(-1-Methyl-2-pyrrolidinyl)ethyl 2-(3,4-dichlorophenyl)acetate] the same measures were “N.E”, 3.32 ± 0.923 µM and 78 ± 0.6%.
For `CN1CCCC1CCOC(=O)c1ccc2ccccc2c1` (racemic) [Compound 19, (±)-2-(1-Methyl-2-pyrrolidinyl)ethyl 2-naphthoate], the “Ki (µM) α4β2 nAChR” value in data set [1] is given as “N.E”. The affinity in data set [2] corresponds to a Ki of 44.2 ± 8.12 µM. Besides, in data set [3] ([…]), the “% of Binding [3H]-Paroxetine h-SERT” value is “increase in the binding” and the % radioligand binding at 25 µM was found to be 126 ± 1.9%.
For the molecule `CN1CCCC1CCOC(=O)C(c1ccccc1)c1ccccc1` (racemic) [Compound 21, (±)-2-(-1-Methyl-2-pyrrolidinyl)ethyl 2,2-diphenylacetate], the results for the Ki in data set [1] and in data set [2] were 0.113 ± 0.037 µM and 0.075 ± 0.009 µM, respectively. The molecule further registered a % radioligand binding at 25 µM in data set [3] ([…]) of 86.5 ± 1.5%.
`CN1CCC[C@H]1COC(=O)c1ccccc1` [Compound 1, (S)-(1-Methyl-2-pyrrolidinyl)methyl Benzoate] yielded a Ki in data set [1] of 0.023 ± 0.006 µM. The “Ki (µM) h-DAT” value in data set [2] is listed as “N.E”. In data set [3] ([…]), this molecule came in with a % radioligand binding at 25 µM of 86 ± 0.6%.
With `CN1CCC[C@H]1COC(=O)c1cccc(F)c1` [Compound 2, (S)-(1-Methyl-2-pyrrolidinyl)methyl 3-fluorobenzoate], the Ki in data set [1] is 0.094 ± 0.002 µM. The “Ki (µM) h-DAT” value in data set [2] is “N.E”. In addition, in data set [3] ([…]), the “% of Binding [3H]-Paroxetine h-SERT” value is “increase in the binding” and the % radioligand binding at 25 µM came out at 123 ± 1.2%.
For the molecule `CN1CCC[C@H]1COC(=O)c1cccc(Cl)c1` [Compound 3, (S)-(1-Methyl-2-pyrrolidinyl)methyl 3-chlorobenzoate], the affinity in data set [1], expressed as Ki, was 0.009 ± 0.001 µM. Moreover, in data set [2], the “Ki (µM) h-DAT” value was “lacks affinity and N.E”. For the same molecule, the % radioligand binding at 25 µM in data set [3] ([…]) amounted to 87.5 ± 1.5%. Besides, in data set [3], the “affinity for h-SERT” value is given as “lacks affinity”.
Molecule `CN1CCC[C@H]1COC(=O)c1cccc(Br)c1` [Compound 4, (S)-(1-Methyl-2-pyrrolidinyl)methyl 3-bromobenzoate] returned a Ki in data set [1] of 0.132 ± 0.038 µM. For the same molecule, the “Ki (µM) h-DAT” value in data set [2] was “N.E”. For the same molecule, in data set [3] ([…]), the “% of Binding [3H]-Paroxetine h-SERT” value was “increase in the binding” and the % radioligand binding at 25 µM is 137 ± 1.2%.
On to `Cc1ccccc1C(=O)OC[C@@H]1CCCN1C` [Compound 5, (S)-(1-Methyl-2-pyrrolidinyl)methyl 2-methylbenzoate], for which the “Ki (µM) α4β2 nAChR” value in data set [1] is listed as “did not display affinity”. Besides, in data set [2], the “Ki (µM) h-DAT” value was “did not display affinity”. In data set [3], the “affinity for h-SERT” value is “did not display affinity”.
Consider `Cc1ccc(C(=O)OC[C@@H]2CCCN2C)cc1` [Compound 6, (S)-(1-Methyl-2-pyrrolidinyl)methyl 4-methylbenzoate], for which, in data set [1], the “Ki (µM) α4β2 nAChR” value is listed as “did not display affinity”. Besides, in data set [2], the “Ki (µM) h-DAT” value is on record as “did not display affinity”. Moreover, in data set [3], the “affinity for h-SERT” value is “did not display affinity”.
For the molecule `CN1CCC[C@H]1COC(=O)c1ccc2ccccc2c1` [Compound 18, (S)-(1-Methyl-2-pyrrolidinyl)methyl 2-naphthoate], the Ki stood at 0.12 ± 0.037 µM in data set [1] and 99.3 ± 1.41 µM in data set [2]. Also, in data set [3] ([…]), the “% of Binding [3H]-Paroxetine h-SERT” value is reported as “increase in the binding”. The % radioligand binding at 25 µM in data set [3] ([…]) was 117 ± 2.3%.

By melting point is commonly meant the temperature of the solid-liquid transition. As a reminder, the Ki is a dissociation constant, usually derived from enzyme kinetics or from competition with a known ligand.
